In one data set the test system is bacterial urease. Briefly: Rat caecum content assay (urease inhibitory activity, ammonia production from urea). The note with it: read-out: IC50, bacterial urease inhibitory activity; rat caecum content with urea, 30 min at 37° C., pH 6.8. Type of data set: cell-based, bacteria of rat caecum content. The protocol: To evaluate the inhibitory activity of HAs, the inventors first established an in vitro assay using rat caecum content.
The use of caecum content samples for the initial screening of urease inhibitors allowed to rapidly identify stable and membrane permeable inhibitors that cover a broad spectrum of bacterial ureases present in the gastrointestinal tract.
According to the herein established protocol, rat caecum content provided by the ETH Phenomics center was diluted in 200 mM potassium phosphate monobasic buffer pH 6.8 and centrifuged at 100×g to remove large particles. The supernatant with dispersed bacteria was collected, mixed with urea and then incubated with an increasing range of inhibitor concentrations for 30 min at 37° C. with constant shaking. In this setup initial concentrations of bacteria and urea were adjusted to the values that lead to the production of ammonia at a final concentration of approximately 1000 μM. Bacterial urease converts urea to ammonia, which was quantified by an enzymatic assay (Ammonia assay, Randox Laboratories, UK).
The established assay was then used to evaluate the potency of commercially available HAs as well as synthesized HAs of the present disclosure. As most of the tested HAs have low aqueous solubility, cyclodextrins were used to prepare water-soluble formulations of the compounds. In this study, a stock solution of acetohydroxamic acid (AHA) was prepared in DMSO, and stock solutions of octanohydroxamic acid (OHA) and 2-octynohydroxamic acid (2-octynoHA) were prepared by dissolving them in aqueous solutions of 2-hydroxypropyl-p-cyclodextrin (HPβCD) in 1:2 and 1:4 molar ratios, respectively. The obtained mixtures were sonicated and heated at 37° C. until fully dissolved.
Besides 2-octynoHA, the urease inhibitory activity of other unsaturated alkylated HAs consisting of 8 carbons was assessed. These included 2-octenohydroxamic acid (2-octenoHA), 3-octenohydroxamic acid (3-octenoHA), 3-octynohydroxamic acid (3-octynoHA) and 7-octynohydroxamic acid (7-octynoHA). Prior to assessing potency in the rat caecum content assay, stock solutions of 2-octenoHA and 3-octenoHA were prepared using HPβCD solution (1:4 molar ratio of HA to HPβCD), stock solutions of 3-octynoHA and 7-octynoHA were prepared using mixture of 10% DMSO and HPβCD solution. The 7-octynoHA presented a lower potency than unsaturated alkylated HAs having a double/triple bond at positions 2 or 3.

The subject of data set [1] is N-Nitrosodiethylamine induced liver disease in rats. The data set can be described thus: In vivo efficacy in N-nitrosodiethylamine (DEN) induced liver disease in rats, blood ammonia. Details: species or system rat. The note with it: 15 mg/kg in HPβCD solution, gavage twice a day from day 3, n=10. On the procedure:
Efficacy of 2-octynoHA was assessed in male Sprague Dawley rats (Beijing Vital River Laboratory Animal Technology Co., Ltd, China) in a model of acute liver disease. The liver damage was induced by reoccurring intraperitoneal injections of N-nitrosodiethylamine (DEN) 60 mg/kg on days 1, 3, 5, and 7.
Four groups of rats were included. The first control group was treated with a solution of HPβCD 270 mg/kg (n=10). The second group was treated with a suspension of rifaximin 30 mg/kg (n=10). The third group was treated with a suspension of rifaximin 60 mg/kg (n=10). The fourth group was treated with 15 mg/kg of 2-octynoHA dissolved in HPβCD solution (1:1 molar ratio of 2-octynoHA to HPβCD) (n=10). All groups received the treatment via gavage twice a day from day 3 to day 8. Blood samples were collected sublingually on days 0, 6 and 8. Blood ammonia level was measured in collected samples using PocketChem™ (Arkray, Japan).

The nature of data set [2]: Pharmacokinetics in male beagle dogs (plasma). It counts as in vivo, dog. The following applies: for bioavailability: dog. The source says: The main objective of the experiment was to quantify the levels of 2-octynoHA in the plasma of male beagle dogs following I.V. administration of a solution of 2-octynoHA with HPβCD (1:1 molar ratio) (PK 1), oral (P.O.) administration of 2-octynoHA formulated in an uncoated gelatin capsule size 0 (PK 2), and oral administration of 2-octynoHA formulated in a coated (Eudragit S100 15% w/w, triethyl citrate 5% w/w, isopropyl alcohol 40% w/w, ethanol 40% w/w) gelatin capsule size 0 for colonic delivery (PK 3) (Table Ill). For each of the studies, three animals were administered with a single dose of the corresponding treatment. Plasma samples were collected at pre-determined time points (Table Ill).
In PK 1, the plasma samples were extracted by protein precipitation prior to analysis. In brief, 40 μL plasma was precipitated with 2 volumes (80 μL) of an organic solvent solution consisting of acetonitrile:methanol (80:20 v/v) containing 1% formic acid. Samples were vortex-mixed and centrifuged at 13,000 rpm. 100 μL of supernatant were further diluted with 100 μL water containing 0.1% formic acid (final dilution factor of 6×). The sample extracts were transferred into a 96-well plate. Four μL plasma extract were injected for chromatographic separation and high resolution/accurate mass analysis. Separation was performed on a 5 cm C18 UPLC column, detection and quantification were performed on a quadrupole time-of-flight (QTof) mass spectrometer in the positive ion mode.
In both PK 2 and PK 3, prior to extraction, plasma samples (ca. 700 μL) were acidified by adding 15 μL of 50% phosphoric acid in water. Then, plasma samples (40 μL) were extracted by protein precipitation by adding 2 volumes (80 μL) of an organic solvent solution consisting of acetonitrile:methanol (80:20 v/v) containing 0.2% formic acid.
Samples were vortex-mixed and centrifuged at 13,000 rpm for 5 min. 100 μL of supernatant were further diluted with 100 μL water containing 0.1% formic acid (final dilution factor of 6×). The sample extracts were transferred into a 96-well plate. Five μL were injected for chromatographic separation and further mass analysis. The chromatographic separation was performed on a 10 cm C18 UPLC column and the MS detection and quantification was performed on a quadrupole time-of-flight (QTof) mass spectrometer in the positive ion mode.
Concentrations of 2-octynoHA was quantified based on the calibration curve. In the PK 1, 2-octynoHA was detected at the m/z 156.1 with the retention time (RT) of 4.12 min. […] Concentration values below the lower limit of quantitation (LLOQ) (i.e., lowest amount of an analyte in a sample that can be quantitatively determined with suitable precision and accuracy) were considered equal to zero.

SMILES strings stand for the structures. Read-outs that look alike come from different tables or passages of the source.

One may read the IC50 as the concentration that gives 50% inhibition. Broadly, the Tmax is the time at which the peak concentration occurs. For `CCCCCC#CC(=O)NO` [2-octynoHA, N-hydroxyoct-2-ynamide], the IC50 in the data set with bacterial urease is around 38 µM. Further, the “blood ammonia level on day 6” value in data set [1] came out at 20 ± 9.6 µM. In addition, the plasma concentration result in data set [2] (PK 3: P.O., 300 mg per dog, coated (Eudragit S100) gelatin capsule for colonic delivery) is reported as “below LLOQ”. In addition, the bioavailability was around 4.5% in data set [2] (male, beagle, plasma, po, 300 mg, uncoated gelatin capsule, dose-adjusted AUC0-t of PK 1 and PK 2, read-out: bioavailability after oral administration); around 0% in data set [2] (male, beagle, plasma, po, delivery via a colonic capsule, read-out: oral bioavailability). In addition, the time to peak (Tmax) in data set [2] (male, beagle, plasma, po, PK 2: P.O., 300 mg per dog, uncoated gelatin capsule) worked out at 30 min. The AUC(0-t) in data set [2] (male, beagle, plasma, po, PK 2: P.O., 300 mg per dog, uncoated gelatin capsule, read-out: AUC0-t (t=12 h)) is around 213 ng·h/mL; in data set [2] (plasma, iv, PK 1: I.V., 100 mg per dog, solution with HPβCD (1:1), male beagle dogs, read-out: AUC0-t (t=4 h)) it was around 1780 ng·h/mL.
